{"source": "patent US20070105085A1", "about": "(Scripps Research, published 2007)", "key": {"MsbA [1]": {"molecular_target": "T1, MsbA (Salmonella typhimurium, UniProt P63359)", "T1 construct": "23-residue pET19b fusion leader with deca-histidine tag (N); made in house; host or cells: E. coli BL21 (DE3)", "assay": "ATPase activity of detergent solubilized MsbA, linked enzyme assay", "assay_type": "biochemical", "procedure": "ATPase Activity. ATPase activity was measured using an ATP-regenerating system described by Vogel and Steinhart, and modified by Urbatsch et al. Briefly, 1 μg of MsbA was added to 100 μl of Linked Enzyme (LE) buffer at 37° C. containing 10 mM ATP, 12 mM MgCl2, 6 mM phosphoenolpyruvate (PEP), 1 mM NADH, 10 units of lactate dehydrogenase (LDH), 10 units of pyruvate kinase (PK), and 50 mM Tris-HCl, pH 7.5. ATP hydrolysis was measured as the decrease in absorbance of NADH at 340 nm using a DXT880 multiplate spectrofluorimeter (Beckman-Coulter). Activity of MsbA in the presence of either E. coli polar lipids (10 μg/ml) or a non-ABC, ATPase inhibitor cocktail (1 mM EGTA, 1 mM NaN3, 0.2 mM ouabain) was measured (FIGS. 28-30). Each data point is the average of 5 independent measurements with standard error bars shown."}, "MsbA [2]": {"molecular_target": "MsbA (Escherichia coli, UniProt P60752)", "sequence (P60752 whole entry, species assumed)": "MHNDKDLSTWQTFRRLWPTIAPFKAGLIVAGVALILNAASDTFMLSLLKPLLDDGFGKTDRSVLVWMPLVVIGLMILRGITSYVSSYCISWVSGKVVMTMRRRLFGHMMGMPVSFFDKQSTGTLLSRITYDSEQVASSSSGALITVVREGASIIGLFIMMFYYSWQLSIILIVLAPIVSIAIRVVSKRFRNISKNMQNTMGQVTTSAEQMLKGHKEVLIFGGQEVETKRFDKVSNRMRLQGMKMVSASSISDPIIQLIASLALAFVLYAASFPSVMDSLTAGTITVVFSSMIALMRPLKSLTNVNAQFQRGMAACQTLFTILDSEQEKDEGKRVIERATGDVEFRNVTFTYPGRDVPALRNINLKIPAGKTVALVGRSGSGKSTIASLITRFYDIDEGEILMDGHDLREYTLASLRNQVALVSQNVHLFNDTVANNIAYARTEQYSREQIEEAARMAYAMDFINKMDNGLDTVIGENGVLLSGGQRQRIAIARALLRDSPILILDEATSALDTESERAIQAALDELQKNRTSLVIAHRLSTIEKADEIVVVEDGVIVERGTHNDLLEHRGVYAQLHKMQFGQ", "details": "cited from earlier work"}, "[3]": {"system": "ΔacrAB E. coli cells overexpressing MsbA", "assay": "Doxorubicin retention in ΔacrAB E. coli cells overexpressing MsbA", "assay_type": "cell-based", "details": "0-100 μM PSC; change of fluorescence at 400 sec versus 0 sec; P<0.05", "procedure": "Doxorubicin Retention. A pET 15b vector containing the msbA gene from Salmonella typhimurium LT2 was transformed into an E. coli strain deficient in the multiple-drug efflux pump AcrAB (ECΔacrAB). Single colony cultures were grown to optical density (OD600 nm) of 0.6 in the presence of 1 mM IPTG to induce overexpression of MsbA, harvested and washed three times with 100 mM potassium phosphate buffer (pH 7.5) containing 5 mM MgSO4 and concentrated to an OD600 of 20. Cellular accumulation of doxorubicin was accomplished by incubation of cells with 11.5 μM doxorubicin and 40 μM carbonyl cyanide m-chlorophenylhydrazone (CCCP) while shaking for 1 hour at 37° C. The cells were then washed three times and incubated for 15 minutes at 37° C. with 40 μM CCCP and 0, 1, 10, 25, 50 or 100 μM PSC. Efflux was initiated by addition of 25 mM glucose and fluorescence in the cell suspensions was monitored at 16-second time intervals with a DXT880 multiplate spectrofluorimeter (Beckman-Coulter) with excitation at 485 nm and emission at 595 nm for 900 seconds. […] Cellular doxorubicin retention was measured as a change of fluoresence at time=400 sec versus time=0 sec. […] Results are the average of 3 experiments, with 3-8 measurements per experiment. Statistical significance was assigned with the two-way analysis of variance (ANOVA). A P<0.05 is considered significant."}, "Wild type E. coli cells": {"system": "Wild type E. coli cells", "assay": "Doxorubicin retention in wild type E. coli cells", "assay_type": "cell-based", "details": "50 μM PSC"}, "P-gp": {"system": "P-gp", "details": "human and murine MDR cell lines; cited from earlier work"}, "[4]": {"molecular_target": "MsbA from Salmonella typhimurium (detergent solubilized, purified) (Salmonella typhimurium) (UniProt P63359)", "assay": "cell-based or functional assay"}, "[5]": {"molecular_target": "the molecule itself", "assay": "X-ray crystal structure of MsbA.ADP.Vi.Ra LPS, 4.2 Å"}}, "note": "“Also recorded” adds a separate entry of the source.", "data": [{"molecule": "COc1cccc2c1C(=O)c1c(O)c3c(c(O)c1C2=O)C[C@@](O)(C(=O)CO)C[C@@H]3O[C@H]1C[C@H](N)[C@H](O)[C@H](C)O1", "note": "[Doxorubicin, doxorubicin]", "values": [{"measurement": "effect on ATPase activity", "setting": "MsbA [1]", "value": "stimulates ATPase activity in a dose dependent manner"}, {"measurement": "concentration of maximum stimulation of ATPase activity", "setting": "MsbA [1]; dose dependent stimulation", "value": 100, "unit": "µM"}]}, {"molecule": "CCCCCCCCCCCCCC(=O)O[C@H](CCCCCCCCCCC)CC(=O)O[C@@H]1[C@@H](NC(=O)C[C@@H](CCCCCCCCCCC)OC(=O)CCCCCCCCCCC)[C@H](OC[C@H]2O[C@H](OP(=O)(O)O)[C@H](NC(=O)C[C@H](O)CCCCCCCCCCC)[C@@H](OC(=O)C[C@H](O)CCCCCCCCCCC)[C@@H]2O)O[C@H](CO[C@]2(C(=O)O)C[C@@H](O[C@]3(C(=O)O)C[C@@H](O)[C@@H](O)[C@@H]([C@H](O)CO)O3)[C@@H](O)[C@@H]([C@H](O)CO)O2)[C@H]1OP(=O)(O)O", "note": "[Kdo2-lipid A]", "values": [{"measurement": "stimulatory effect on ATP activity of MsbA", "setting": "MsbA [2]; compared with Ra LPS", "value": "larger stimulatory effect"}]}, {"molecule": "C/C=C/C[C@@H](C)C(=O)[C@H]1C(=O)N[C@@H](C(C)C)C(=O)N(C)CC(=O)N(C)[C@@H](CC(C)C)C(=O)N[C@@H](C(C)C)C(=O)N(C)[C@@H](CC(C)C)C(=O)N[C@@H](C)C(=O)N[C@H](C)C(=O)N(C)[C@@H](CC(C)C)C(=O)N(C)[C@@H](CC(C)C)C(=O)N(C)[C@@H](C(C)C)C(=O)N1C", "note": "[PSC, [3′-Desoxy-3′-oxo-MeBmt]^1-[Val]^2-Ciclosporin]", "values": [{"measurement": "stimulation of ATPase over basal activity", "setting": "MsbA [1]; PSC at concentrations of 50-250 μM, basal activity 1.25 μmol ATP/min/mg of protein", "value": "up to 55%"}, {"measurement": "effect on MsbA ATPase activity", "setting": "MsbA [1]; concentrations less than 50 μM", "value": "modulated"}, {"measurement": "effect on doxorubicin stimulated ATPase activity of MsbA", "setting": "MsbA [1]; doxorubicin stimulated", "value": "modulates doxorubicin stimulated ATPase activity"}, {"measurement": "doxorubicin retention", "setting": "[3]", "value": "alters the retention of doxorubicin; also recorded: mediates doxorubicin retention"}, {"measurement": "increase in doxorubicin retention", "setting": "Wild type E. coli cells", "value": "less than 10%"}, {"measurement": "inhibition of P-gp mediated drug accumulation", "setting": "P-gp", "value": "potent inhibitor"}]}, {"molecule": "PSC-833, [3'-Desoxy-3'-oxo-MeBmt]1-[Val]2-Ciclosporin (peptide)", "values": [{"measurement": "ATPase activity of detergent solubilized MsbA (linked enzyme assay) (% over basal activity)", "setting": "[4]", "value": "< 55"}]}, {"molecule": "lipid A", "values": [{"measurement": "stimulation of MsbA ATPase", "setting": "MsbA [2]; studies in vitro", "value": "specifically stimulated"}]}, {"molecule": "MsbA from Salmonella typhimurium (detergent solubilized, purified) (other, also called ST-MsbA; ABC Transporter MsbA) MHNDKDLSTWQTFRRLWPTIAPFKAGLIVAGIALILNAASDTFMLSLLKPLLDDGFGKTDRSVLLWMPLVVIGLMILRGITSYISSYCISWVSGKVVMTMRRRLFGHMMGMPVAFFDKQSTGTLLSRITYDSEQVASSSSGALITVVREGASIIGLFIMMFYYSWQLSIILVVLAPIVSIAIRVVSKRFRSISKNMQNTMGQVTTSAEQMLKGHKEVLIFGGQEVETKRFDKVSNKMRLQGMKMVSASSISDPIIQLIASLALAFVLYAASFPSVMDSLTAGTITVVFSSMIALMRPLKSLTNVNAQFQRGMAACQTLFAILDSEQEKDEGKRVIDRATGDLEFRNVTFTYPGREVPALRNINLKIPAGKTVALVGRSGSGKSTIASLITRFYDIDEGHILMDGHDLREYTLASLRNQVALVSQNVHLFNDTVANNIAYARTEEYSREQIEEAARMAYAMDFINKMDNGLDTIIGENGVLLSGGQRQRIAIARALLRDSPILILDEATSALDTESERAIQAALDELQKNRTSLVIAHRLSTIEQADEIVVVEDGIIVERGTHSELLAQHGVYAQLHKMQFGQ", "values": [{"measurement": "binding result", "setting": "[5]", "value": "binds"}]}]}
